Here are results for seven compounds from patent US20110190235A1, “BORON-CONTAINING SMALL MOLECULES AS ANTIPROTOZOAL AGENTS” (Anacor Pharmaceuticals, Inc., priority 2009, published 2011).

≈ marks a conversion by molar mass, not a printed value. Like-named read-outs stand apart in the source and are kept apart here.

Data set [1] in a line: L929 cytotoxicity evaluation (resazurin). Type of data set: cell-based. The following applies: mouse, L929 mouse fibroblast cells; 72 hrs incubation; read-out: Cytotox L-929 IC50. The gist of the method:
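Mouse L929 fibroblasts (1×10^4/mL seeding, attached overnight) were treated 72 h at 37 °C, 5% CO2 with serially diluted compounds in DMSO in D-MEM/10% FBS. Viability read by resazurin fluorescence after 3–4 h (ex 544/em 590 nm); IC50 from sigmoidal fits of single data points.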
Background: Resazurin is reduced to fluorescent resorufin, in cell work by metabolically active cells.

The test system of data set [2] is bloodstream-form trypanosome T. brucei brucei 427 strain. As to the kind of experiment: Trypanosoma brucei brucei high-throughput in vitro drug sensitivity assay (resazurin). Type of data set: cell-based. As to conditions: for IC50: Trypanosoma brucei, 72 hrs incubation; for Selectivity Index (L929 IC50 / T. b. brucei IC50): T. b. brucei vs L929.
The nature of data set [3]: Kinetic solubility by nephelometric (light scattering) method. It is filed as physicochemical. The following applies: phosphate buffered saline, aqueous buffer, kinetic from dmso stock, PBS pH 7.4. As to the method:
The kinetic solubilities of compounds were estimated using a nephelometric (light scattering) method. Briefly, compounds were serially diluted in DMSO, followed by dilution in PBS pH 7.4. After incubation, the amount of light scattered by a compound at each concentration was measured. […] At concentrations above the solubility limit, the compound precipitates and the precipitant in the well scatters the light, generating a signal. Higher levels of precipitant in a well scatter more light and produce a stronger signal.
A stock solution of compound (25 mM in DMSO) was prepared, and was serially diluted in DMSO in two-fold increments in a row of a 96 well plate to a lowest concentration of 24 μM. A duplicate plate was prepared by transfer of half of the volume of each well to a new plate. Each well containing DMSO solution of the test compound was then diluted further (1:100) with phosphate buffered saline (pH 7.4) to provide aqueous solutions of compound at the following final concentrations: 250, 125, 62.5, 31.3, 15.6, 7.8, 3.9, 2.0, 1.0, 0.5 and 0.2 μM. All liquid handling stages were performed on a Beckman Coulter Biomek NX Laboratory Automation Workstation. Each compound was diluted and tested in duplicate, providing four separate wells at each test concentration.
The test solutions of compound were incubated at room temperature for 90 minutes and then analyzed using a Thermoskan Ascent nephelometric plate reader. The nephelometer protocol included two steps: first, the plate was shaken for 60 seconds at 1200 rpm, then each well of the plate was read in succession with an 800 ms settling delay between measurements. The total measurement time for a single plate was less than 4 minutes.
The four values (in nephelometric units) obtained for each compound at each concentration were averaged and plotted on a log scale versus concentration.

Data set [4] is described as follows: Pharmacokinetic studies in rats (plasma, brain, CSF). Type of data set: in vivo. The following applies: for half-life: read-out: t½ (converted); for Cmax / AUC(0-t) / AUC(0-inf): normalized to 25 mg/kg; for AUC(0-t): read-out: Exposure/trapezoid AUC0-18; for AUC(0-inf): read-out: Exposure/trapezoid AUC0-inf. As to the method:
Male Sprague Dawley rats weighing approximately 200 g received test article (E19 or 82) as a single oral gavage (OG) dose of approximately 25 mg/kg (approximately 10 animals per group).
All doses were administered as clear colorless solutions as in situ sodium salts in 5% (m/v) dextrose:2% (v/v) ethanol in DWI. All dose solutions were delivered at 2 mL/kg. Animals were fasted for at least 4 hours before dosing, and for 2 hours after dosing.
Blood and CSF samples and brain tissue were sampled from 1 animal/timepoint/group immediately before dosing and approximately 0.5, 1, 2, 3, 4, 6, 8, 12, 18 and 24 hr after dosing for full pharmacokinetic (plasma and CSF) and tissue (Brain) analysis.

A short description of data set [5]: Pharmacokinetic studies in mice (plasma, brain). Type of data set: in vivo. The following applies: for half-life: read-out: t½ (converted); for Cmax: normalized to 25 mg/kg (nominal 25 mg/kg); for AUC(0-t) / AUC(0-inf): normalized to 25 mg/kg; for AUC(0-t): read-out: Exposure/trapezoid AUC0-18; for AUC(0-inf): read-out: Exposure/trapezoid AUC0-inf. The method, then: Male CD-1 mice weighing approximately 25 g received the test article (E19 or 82 or E14 or 69) by either intravenous (IV), oral gavage (OG) or intra-peritoneal (IP) routes. Animals in IV group (6-10 animals, 1-2 per time point) received a single bolus injection of approximately 2 mg/kg of the test article. Animals receiving […], or as 4 repeat doses ([…], 1-2 per time point).
All doses were administered as clear colorless solutions in either: 50% (v/v) PEG400:20% (v/v) ethanol:30% (v/v) carboxymethylcellulose (0.5% w/v in sterile water for injection, WFI), or as in situ sodium salts in 5% (m/v) dextrose:2% (v/v) ethanol in DWI. All dose solutions were delivered at 4 mL/kg. Animals were fasted for at least 4 hours before dosing, and for 2 hours after dosing.
Blood samples and brain tissue were sampled from 1 or 2 animals/timepoint/group immediately before dosing and approximately 0.17, 0.5, 1, 2, 3, 4, 6, 8, 12, 18 and 24 hr after dosing for full pharmacokinetic and tissue analysis, or at 0.5, 2 and 4 hours post dosing to assess early-phase CNS disposition.
Bioanalysis for test article in whole blood, plasma or brain tissue was performed by HPLC with tandem mass spectrometry (LC-MSMS). Whole blood and plasma samples were treated with 3 volumes of either acetonitrile or methanol to precipitate plasma proteins. Treated samples were centrifuged and supernatants removed for analysis. Brain tissues were weighed and homogenized mechanically in the presence of 1 volume of phosphate-buffered saline (PBS). The resulting tissue suspensions were then diluted with a further volume of PBS, and then treated in the same manner as whole blood or plasma.
Extracted samples were assayed for test article by means of LC-MSMS employing reversed-phase chromatography coupled to a triple quadrupole mass spectrometer employing electrospray ionization in the positive ion mode. The analytical column was a Phenomenex Luna 3μ C8 50×2 mm, with an online sample purification step performed on a Phenomenex Synergi 4μ Polar RP 50×2 mm column.
Test articles were eluted using a binary mobile phase gradient comprising 5 mM Ammonium Acetate: 0.1% formic acid in either MeOH or H2O.
Non-compartmental analysis of plasma test article concentration versus time was performed in Microsoft Excel to generate pharmacokinetic parameters including: area under the curve (AUC), clearance (as Cl or Cl/F), volume of distribution (Vdss), half-life (t½), and bioavailability (F).

Where [6] appears, read: male, Sprague Dawley, rat, CSF, oral, rats.
The mark [7] stands for this setting: male, Sprague Dawley, rat, brain, oral, rats.
[8] abbreviates: male, Sprague Dawley, rat, plasma, oral, rats.
[9] abbreviates: male, CD-1, mouse, brain, oral, mice.
The mark [10] stands for this setting: male, CD-1, mouse, plasma, oral, mice.

As usually defined, the IC50 is the concentration that inhibits the measured activity by half. As usually defined, the solubility is the dissolved amount per volume that the medium holds. As to `Cc1ccc(F)c(C(=O)Nc2ccc3c(c2)B(O)OC3(C)C)c1Cl` [compound 107, 2-Chloro-6-fluoro-N-(1-hydroxy-3,3-dimethyl-1,3-dihydro-benzo[c][1,2]oxaborol-6-yl)-3-methyl-benzamide], the IC50 at 72 h in data set [1] was above 10 µg/mL. Besides, the IC50 in data set [2] (read-out: T.b. brucei IC50) was 0.566 µg/mL. Moreover, the concentration in solution in data set [3] (solubility at 90 min) came to 4.3 µM (≈ 1.49 µg/mL).

Regarding `O=C(Nc1ccc2c(c1)B(O)OC2C1CCCC1)c1ccccc1C(F)(F)F` (centres unmarked) [compound 17, N-(3-Cyclopentyl-1-hydroxy-1,3-dihydro-benzo[c][1,2]oxaborol-6-yl)-2-trifluoromethyl-benzamide], the IC50 at 72 h in data set [1] was above 10 µg/mL. Further, in data set [2], the “Selectivity Index (L929 IC50 / T. b. brucei IC50)” value was above 15. In addition, the IC50 in data set [2] (read-out: T. b. brucei IC50) was 1680 nM; in data set [2] (read-out: T.b. brucei IC50), 0.655 µg/mL. In data set [3], this compound displayed a solubility at 90 min of 25 µM (≈ 9.73 µg/mL).

Take `Cc1ccc(C(=O)Nc2ccc3c(c2)B(O)OC3C)cc1` (centres unmarked) [compound 7, N-(1-Hydroxy-3-methyl-1,3-dihydro-benzo[c][1,2]oxaborol-6-yl)-4-methyl-benzamide]: the IC50 at 72 h in data set [1] was determined as 5.61 µg/mL (≈ 20 µM). In data set [2], the “Selectivity Index (L929 IC50 / T. b. brucei IC50)” value is recorded as 137. Moreover, the half-inhibitory concentration (IC50) was found to be 146 nM in data set [2] (read-out: T. b. brucei IC50) and 0.041 µg/mL in data set [2] (read-out: T.b. brucei IC50). In data set [3], this compound came in with a solubility at 90 min of 100 µM (≈ 28.1 µg/mL).

As to `CC1(C)OB(O)c2cc(NC(=O)c3ccc(F)cc3)ccc21` [compound 44, 4-Fluoro-N-(1-hydroxy-3,3-dimethyl-1,3-dihydro-benzo[c][1,2]oxaborol-6-yl)-benzamide], in data set [1], the IC50 at 72 h is above 10 µg/mL. Besides, the IC50 in data set [2] (read-out: T. b. brucei IC50) is above 16700 nM; in data set [2] (read-out: T.b. brucei IC50) it was above 5 µg/mL. This compound also came in with a solubility at 90 min in data set [3] of 100 µM (≈ 29.9 µg/mL).

As for `CC(C)(C)c1ccc(C(=O)Nc2ccc3c(c2)B(O)OC3(C)C)cc1` [compound 33, 4-tert-Butyl-N-(1-hydroxy-3,3-dimethyl-1,3-dihydro-benzo[c][1,2]oxaborol-6-yl)-benzamide], the IC50 at 72 h in data set [1] is above 10 µg/mL. Further, the half-maximal inhibitory concentration (IC50) in data set [2] (read-out: T.b. brucei IC50) turned out to be 0.229 µg/mL. The compound also came in with a solubility at 90 min in data set [3] of 6 µM (≈ 2.02 µg/mL).

As for `CC1(C)OB(O)c2cc(NC(=O)c3ccc4ccccc4c3)ccc21` [compound 112, Naphthalene-2-carboxylic acid (1-hydroxy-3,3-dimethyl-1,3-dihydrobenzo[c][1,2]oxaborol-6-yl)-amide], in data set [1], the half-maximal inhibitory concentration (IC50) at 72 h is above 10 µg/mL. In addition, in data set [2] (read-out: T.b. brucei IC50), the IC50 stood at 0.278 µg/mL. In data set [3], this compound displayed a solubility at 90 min of 50 µM (≈ 16.6 µg/mL).

As a reminder, the Cmax is the maximum level reached in the sampled fluid or tissue. For the compound `O=C(Nc1ccc2c(c1)B(O)OC2)c1ccc(F)cc1C(F)(F)F` [E19, 4-Fluoro-N-(1-hydroxy-1,3-dihydro-benzo[c][1,2]oxaborol-6-yl)-2-trifluoromethyl-benzamide], the half-life in data set [4] (male, Sprague Dawley, rat, 25 mg/kg, CSF, oral, rats) is 3.1 h; in data set [4] (male, Sprague Dawley, rat, 25 mg/kg, brain, oral, rats), 2.6 h; in data set [4] (male, Sprague Dawley, rat, 25 mg/kg, plasma, oral, rats) it was 8.1 h; in data set [5] (male, CD-1, mouse, 25 mg/kg, brain, oral, mice), 2.3 h; in data set [5] (male, CD-1, mouse, 25 mg/kg, plasma, oral, mice), 17.1 h. In addition, the CL/F was 4.35 mL/min/kg in data set [4] (male, Sprague Dawley, rat, 25 mg/kg, plasma, oral, rats, read-out: Oral Clearance Cl/F (converted)) and 3.83 mL/min/kg in data set [5] (male, CD-1, mouse, 25 mg/kg, plasma, oral, mice, read-out: Oral Clearance Cl/F (converted)). Also, the maximum concentration (Cmax) worked out at 1200 ng/mL in data set [4] (setting [6]); 2500 ng/mL in data set [4] (setting [7]); 12300 ng/mL in data set [4] (setting [8]); 6100 ng/mL in data set [5] (setting [9]); 10000 ng/mL in data set [5] (setting [10]). The AUC(0-t) was 3800 ng·h/mL in data set [4] (setting [6]); 12700 ng·h/mL in data set [4] (setting [7]); 98300 ng·h/mL in data set [4] (setting [8]); 13100 ng·h/mL in data set [5] (setting [9]); 70600 ng·h/mL in data set [5] (setting [10]). Further, the AUC(0-inf) in data set [4] (setting [6]) came to 3900 ng·h/mL; in data set [4] (setting [7]), 12700 ng·h/mL; in data set [4] (setting [8]), 102000 ng·h/mL; in data set [5] (setting [9]), 13200 ng·h/mL; in data set [5] (setting [10]) it was 109000 ng·h/mL. The “time levels in brain and CSF are above the in vitro MIC” value in data set [4] (nominal single oral dose of 25 mg/kg to rats) came to 4 h. The “F (% of IV)” value is 123.0% in data set [4] (plasma, oral, rats) and 26% in data set [5] (plasma, oral, mice). The “dose proportionality of exposure in plasma, brain and CSF” value in data set [4] (rats) is “increase in a generally proportional manner with dose”. Further, the “brain concentrations relative to the MIC” value in data set [5] (mouse and rat, brain (and CSF)) is recorded as “decrease rapidly to levels below the MIC within a few hours after dosing”. For the same compound, in data set [5] (oral delivery to mice), the “dose proportionality of brain exposure” value was “generally dose-proportional increases”. For the same compound, in data set [5] (oral delivery to mice), the “dose proportionality of plasma exposure” value was “greater than proportional at doses above 20 mg/kg”. The “plasma PK when administered to rodents” value in data set [5] (rodents, plasma) was “good exposure (AUC and Cmax), promising bioavailability, prolonged half-life, and low clearance”.
